This note sets out measurements from patent US11078204B2, “Heterocyclic derivatives as PI3K inhibitors” (Incyte Corporation, priority 2018, dated 2021).

For experiment [1], the target named is PI3Kγ (p110γ) Recombinant Human Protein (Homo sapiens (Human), UniProt P48736). Description: PI3K-γ Scintillation Proximity Assay. The note with it: 20 μM PIP2, 2 μM ATP, 13 nM PI3Kγ, 120 min. The format is biochemical. The source says: Example B. PI3K-γ Scintillation Proximity Assay
[γ-^33P]ATP (10 mCi/mL) and Wheat Germ Agglutinin (WGA) YSi SPA Scintillation Beads was purchased from Perkin Elmer (Waltham, Mass.). Lipid kinase substrate, D-myo-Phosphatidylinositol 4,5-bisphosphate (PtdInS(4,5)P2)D (+)-sn-1,2-di-O-octanoylglyceryl, 3-O-phospho linked (PIP2), CAS 204858-53-7, was purchased from Echelon Biosciences (Salt Lake City, Utah). PI3Kγ (p110γ) Recombinant Human Protein was purchased from Life technology (Grand Island, N.Y.). ATP, MgCl2, DTT, EDTA, MOPS and CHAPS were purchased from Sigma Aldrich (St. Louis, Mo.).
(§1) The kinase reaction was conducted in polystyrene 384-well Greiner Bio-one white plate from Thermo Fisher Scientific in a final volume of 25 μL. Inhibitors were first diluted serially in DMSO and added to the plate wells before the addition of other reaction components. The final concentration of DMSO in the assay was 2%. The PI3Kγ assay was carried out at room temperature in 20 mM MOPS, pH 6.7, 10 mM MgCl2, 5 mM DTT and CHAPS 0.03%. Reactions were initiated by the addition of ATP, the final reaction mixture consisted of 20 μM PIP2, 2 μM ATP, 0.5 μCi [γ-^33p]ATP, 13 nM PI3Kγ. Reactions were incubated for 120 min and terminated by the addition of 40 μL SPA beads suspended in quench buffer: 163 mM potassium phosphate pH 7.8, 20% glycerol, 25 mM EDTA. The final concentration of SPA beads is 1.0 mg/mL. After the plate sealing, plates were shaken overnight at room temperature and centrifuged at 1500 rpm for 10 min, the radioactivity of the product was determined by scintillation counting on Topcount (PerkinElmer). IC50 determination was performed by fitting the curve of percent of the solvent control activity versus the log of the inhibitor concentration using the GraphPad Prism 6.0 software.

Experiment [2] deals with PI3Kδ (p110δ/p85α) Recombinant Human Protein (Homo sapiens (Human), UniProt O00329). The experiment can be described thus: PI3Kδ Scintillation Proximity Assay. The format is biochemical. The note with it: 20 μM PIP2, 2 μM ATP, 3.4 nM PI3Kδ, 120 min.
PI3Kδ (p110δ/p85α) Recombinant Human Protein, sequence (O00329 whole entry): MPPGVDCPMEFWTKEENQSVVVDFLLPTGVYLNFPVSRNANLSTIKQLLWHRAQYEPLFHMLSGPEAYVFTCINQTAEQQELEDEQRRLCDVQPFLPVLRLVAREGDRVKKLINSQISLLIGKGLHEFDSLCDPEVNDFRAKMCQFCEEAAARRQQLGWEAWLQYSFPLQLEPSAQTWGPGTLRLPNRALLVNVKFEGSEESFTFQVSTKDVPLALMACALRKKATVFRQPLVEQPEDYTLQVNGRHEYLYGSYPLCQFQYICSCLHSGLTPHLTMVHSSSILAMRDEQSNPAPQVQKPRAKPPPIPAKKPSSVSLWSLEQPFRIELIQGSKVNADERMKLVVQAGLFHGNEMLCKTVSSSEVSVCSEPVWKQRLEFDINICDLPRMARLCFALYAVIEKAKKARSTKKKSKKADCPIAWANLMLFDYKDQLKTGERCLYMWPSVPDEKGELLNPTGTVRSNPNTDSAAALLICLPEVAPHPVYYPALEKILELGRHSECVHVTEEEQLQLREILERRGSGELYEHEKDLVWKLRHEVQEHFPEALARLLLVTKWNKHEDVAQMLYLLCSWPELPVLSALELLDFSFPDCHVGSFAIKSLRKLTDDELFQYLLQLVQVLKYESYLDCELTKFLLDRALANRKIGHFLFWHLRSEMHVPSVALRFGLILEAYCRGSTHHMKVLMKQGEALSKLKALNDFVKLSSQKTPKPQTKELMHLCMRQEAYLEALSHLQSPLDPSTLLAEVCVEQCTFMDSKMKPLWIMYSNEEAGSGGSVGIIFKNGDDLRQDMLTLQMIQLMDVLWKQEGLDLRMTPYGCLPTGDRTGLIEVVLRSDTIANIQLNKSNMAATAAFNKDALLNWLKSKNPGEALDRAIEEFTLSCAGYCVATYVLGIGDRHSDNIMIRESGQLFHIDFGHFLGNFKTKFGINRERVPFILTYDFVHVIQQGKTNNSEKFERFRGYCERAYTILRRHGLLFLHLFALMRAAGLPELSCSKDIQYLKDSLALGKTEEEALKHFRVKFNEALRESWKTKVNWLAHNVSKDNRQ
PI3Kδ (p110δ/p85α) Recombinant Human Protein, sequence (P27986 whole entry partner): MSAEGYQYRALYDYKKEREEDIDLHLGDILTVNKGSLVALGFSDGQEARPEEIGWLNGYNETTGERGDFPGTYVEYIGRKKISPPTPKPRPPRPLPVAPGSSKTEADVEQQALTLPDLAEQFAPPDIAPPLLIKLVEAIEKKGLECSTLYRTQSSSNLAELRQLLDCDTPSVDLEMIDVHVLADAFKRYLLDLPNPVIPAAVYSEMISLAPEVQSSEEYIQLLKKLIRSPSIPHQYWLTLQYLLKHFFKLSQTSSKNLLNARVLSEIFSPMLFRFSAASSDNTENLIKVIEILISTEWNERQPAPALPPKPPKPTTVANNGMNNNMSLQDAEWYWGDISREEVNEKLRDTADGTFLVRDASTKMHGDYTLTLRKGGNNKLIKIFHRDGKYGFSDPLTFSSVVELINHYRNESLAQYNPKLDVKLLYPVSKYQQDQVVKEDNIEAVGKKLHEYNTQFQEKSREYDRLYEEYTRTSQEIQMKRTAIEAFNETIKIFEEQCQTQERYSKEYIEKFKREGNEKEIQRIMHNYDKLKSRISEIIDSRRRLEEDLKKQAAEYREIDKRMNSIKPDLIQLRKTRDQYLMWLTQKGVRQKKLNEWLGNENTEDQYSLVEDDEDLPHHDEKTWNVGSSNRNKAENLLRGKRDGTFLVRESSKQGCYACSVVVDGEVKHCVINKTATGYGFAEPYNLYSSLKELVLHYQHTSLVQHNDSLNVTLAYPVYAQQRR
Text: Example C. PI3Kδ Scintillation Proximity Assay
[γ-^33P]ATP (10 mCi/mL) and Wheat Germ Agglutinin (WGA) YSi SPA Scintillation Beads was purchased from Perkin Elmer (Waltham, Mass.). Lipid kinase substrate, D-myo-Phosphatidylinositol 4,5-bisphosphate (PtdInS(4,5)P2)D (+)-sn-1,2-di-O-octanoylglyceryl, 3-O-phospho linked (PIP2), CAS 204858-53-7, was purchased from Echelon Biosciences (Salt Lake City, Utah). PI3Kδ (p110δ/p85α) Recombinant Human Protein was purchased from Eurofins (St Charles, Mo.). ATP, MgCl2, DTT, EDTA, MOPS and CHAPS were purchased from Sigma Aldrich (St. Louis, Mo.).
as §1, with “PI3Kδ” for “PI3Kγ”, “[γ-^33P]ATP, 3.4” for “[γ-^33p]ATP, 13”, “PI3Kδ.” for “PI3Kγ.”

For experiment [3], the system named is Phosphorylated Ribosomal Protein S6 (RPS6) in THP-1 cells. The experiment can be described thus: THP-1 RPS6 ELISA Assay. The class given is cell-based. The note with it: Homo sapiens, 2 hours compound, 10 nM MCP-1 for 15 minutes, Phospho-RPS6 ELISA, read-out: PI3Kγ_THP1_RPS6_ELISA IC50. As to the method:
Example A. THP-1 RPS6 ELISA Assay To measure the Phosphorylated Ribosomal Protein S6 (RPS6) in cell lysates, THP-1 cells (Human Acute Monocytic Leukemia) are purchased from ATCC (Manassas, Va.) and maintained in RPMI with 10% FBS (Gibco/Life Technologies, Carlsbad, Calif.). For the assay, THP-1 cells are serum starved overnight in RPMI, then plated in RPMI (2×10^5 cells/well in 90 μL) into 96-well flat-bottom tissue culture treated plates (Corning, Corning, N.Y.), in the presence or absence of a concentration range of test compounds. Covered plates are incubated for 2 hours at 37° C., 5% CO2 then treated with or without 10 nM MCP-1 (MYBioSource, San Diego, Calif.) for 15 minutes at 37° C., 5% CO2. Plates are centrifuged at 1600 RPM and supernatants are removed. Cells are lysed in Lysis Buffer (Cell Signaling, Danvers, Mass.) with Protease Inhibitor (Calbiochem/EMD, Germany), PMSF (Sigma, St Louis Mo.), HALTS (Thermo Fisher, Rockford, Ill.) for 30 min on wet ice. Cell lysates are frozen at −80° C. before testing. The lysates are tested in the Human/Mouse/Rat Phospho-RPS6 ELISA (R&D Systems, Inc. Minn, Minn.). The plate is measured using a microplate reader (SpectraMax M5-Molecular Devices, LLC Sunnyvale, Calif.) set to 450 nm with a wavelength correction of 540. IC50 determination is performed by fitting the curve of inhibitor percent inhibition versus the log of the inhibitor concentration using the GraphPad Prism 5.0 software.
On the technique in general: ELISA stands for enzyme-linked immunosorbent assay.

Counter-ions that a name gives are not always drawn. Where only a bound is given, the exact number is not on record here.

PI3Kγ (p110γ) Recombinant Human Protein, sequence (P48736 whole entry): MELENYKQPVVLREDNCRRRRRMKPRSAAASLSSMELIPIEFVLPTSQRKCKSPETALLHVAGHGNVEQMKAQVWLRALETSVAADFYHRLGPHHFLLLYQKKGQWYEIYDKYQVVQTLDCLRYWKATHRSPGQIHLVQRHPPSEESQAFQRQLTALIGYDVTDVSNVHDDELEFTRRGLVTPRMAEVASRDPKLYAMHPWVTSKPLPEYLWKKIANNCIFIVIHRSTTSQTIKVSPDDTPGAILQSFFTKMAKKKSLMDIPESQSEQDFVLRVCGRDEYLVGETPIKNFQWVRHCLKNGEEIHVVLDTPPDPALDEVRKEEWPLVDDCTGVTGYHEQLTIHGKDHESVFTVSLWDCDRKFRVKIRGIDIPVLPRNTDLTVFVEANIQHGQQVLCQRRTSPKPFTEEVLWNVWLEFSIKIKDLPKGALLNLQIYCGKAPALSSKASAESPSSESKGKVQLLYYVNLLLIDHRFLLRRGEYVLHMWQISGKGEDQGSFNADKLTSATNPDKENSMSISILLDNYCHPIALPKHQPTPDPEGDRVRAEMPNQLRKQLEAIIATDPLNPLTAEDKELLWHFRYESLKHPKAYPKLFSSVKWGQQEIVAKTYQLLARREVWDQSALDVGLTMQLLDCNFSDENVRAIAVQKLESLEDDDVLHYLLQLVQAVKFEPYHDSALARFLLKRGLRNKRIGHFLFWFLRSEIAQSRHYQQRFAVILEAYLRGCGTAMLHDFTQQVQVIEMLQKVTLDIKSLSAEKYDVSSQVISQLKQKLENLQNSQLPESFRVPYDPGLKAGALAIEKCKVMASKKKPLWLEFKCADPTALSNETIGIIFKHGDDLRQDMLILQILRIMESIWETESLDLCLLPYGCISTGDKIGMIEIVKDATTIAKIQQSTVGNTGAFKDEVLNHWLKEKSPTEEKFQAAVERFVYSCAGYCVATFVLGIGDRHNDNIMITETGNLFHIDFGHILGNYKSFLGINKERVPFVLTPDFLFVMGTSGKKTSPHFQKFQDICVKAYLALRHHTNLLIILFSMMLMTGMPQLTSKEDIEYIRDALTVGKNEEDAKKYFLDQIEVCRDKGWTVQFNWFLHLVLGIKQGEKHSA

Turning to `CC(C)NC(=O)c1cn2c(-c3cc4c(c(S(C)(=O)=O)c3)C(=O)N([C@@H](C)C3CC3)C4)cnc2c(N)n1` (single isomer, unassigned) [Example 28, trifluoroacetate salt], the figures for the IC50 in experiment [1], in experiment [2] and in experiment [3] were ≤ 100 nM, ≤ 500 nM and ≤ 500 nM, respectively.

As for `C[C@@H](C1CC1)N1Cc2cc(-c3cnc4c(N)nc(C(F)(F)F)cn34)cc(S(C)(=O)=O)c2C1=O` [Example 3, (S)-5-(8-Amino-6-(trifluoromethyl)imidazo[1,2-a]pyrazin-3-yl)-2-(1-cyclopropylethyl)-7-(methylsulfonyl)isoindolin-1-one], the figures for the IC50 in experiment [1], in experiment [2] and in experiment [3] were ≤ 100 nM, < 2000 nM and ≥ 1000 nM, respectively.

As for `C[C@@H](C1CC1)N1Cc2cc(-c3cnc4c(N)nc(C(=O)NC56CC(C5)C6)cn34)cc(S(C)(=O)=O)c2C1=O` (single isomer, unassigned) [Example 29b, trifluoroacetate salt], the IC50 (in general, the midpoint of a concentration-inhibition curve) in experiment [1] is ≤ 100 nM; in experiment [2], ≤ 500 nM; in experiment [3], < 1000 nM.

`Cc1ncc(-c2cn3c(-c4cc5c(c(S(C)(=O)=O)c4)C(=O)N([C@@H](C)C4CC4)C5)cnc3c(N)n2)o1` (single isomer, unassigned) [Example 33, trifluoroacetate salt]: the IC50 in experiment [1] was ≤ 100 nM; in experiment [2] it was ≤ 100 nM; in experiment [3], ≤ 500 nM.

`CC(c1ccccc1)N1Cc2cc(-c3cnc4c(N)ncnn34)ccc2C1=O` (racemic) [Example 12, 5-(4-Aminoimidazo[2,1-f][1,2,4]triazin-7-yl)-2-(1-phenylethyl)isoindolin-1-one, trifluoroacetate salt]: the results for the IC50 in experiment [1], in experiment [2] and in experiment [3] were ≤ 100 nM, ≤ 500 nM and ≥ 1000 nM, respectively.

Consider `C[C@@H](C1CC1)N1Cc2cc(-c3cnc4c(N)ncnn34)cc(S(C)(=O)=O)c2C1=O` [Example 8, (S)-5-(4-Aminoimidazo[2,1-f][1,2,4]triazin-7-yl)-2-(1-cyclopropylethyl)-7-(methylsulfonyl)isoindolin-1-one], for which the IC50 was ≤ 100 nM in experiment [1], ≤ 500 nM in experiment [2] and < 1000 nM in experiment [3].

In the case of `C[C@@H](C1CC1)N1Cc2cc(-c3cnc4c(N)nc(C(=O)NC5CCOCC5)cn34)cc(S(C)(=O)=O)c2C1=O` [Example 29, (S)-8-Amino-3-(2-(1-cyclopropylethyl)-7-(methylsulfonyl)-1-oxoisoindolin-5-yl)-N-(tetrahydro-2H-pyran-4-yl)imidazo[1,2-a]pyrazine-6-carboxamide, trifluoroacetate salt], the values for the IC50 in experiment [1], in experiment [2] and in experiment [3] were ≤ 100 nM, ≤ 500 nM and < 1000 nM, respectively.

As for `CC(O)c1cc(-c2cnc3c(N)ncnn23)cc2c1C(=O)N([C@@H](C)C1CC1)C2` (mixture of isomers) [Example 16, 5-(4-Aminoimidazo[2,1-f][1,2,4]triazin-7-yl)-2-((S)-1-cyclopropylethyl)-7-(1-hydroxyethyl)isoindolin-1-one trifluoroacetate salt], the IC50 in experiment [1] was ≤ 100 nM; in experiment [2], ≤ 500 nM; in experiment [3], ≥ 1000 nM.

For the compound `CC(C1CC1)n1cc2cc(-c3cnc4c(N)ncnn34)cnc2n1` (stereo not drawn) [Example 25, 7-(2-(1-Cyclopropylethyl)-2H-pyrazolo[3,4-b]pyridin-5-yl)imidazo[2,1-f][1,2,4]triazin-4-amine trifluoroacetate salt], the IC50 in experiment [1] is ≤ 100 nM; in experiment [2] it was ≥ 2000 nM; in experiment [3], ≥ 1000 nM.

In the case of `C[C@@H](C1CC1)N1Cc2cc(-c3cnc4c(N)nc(C(=O)N5CCC5)cn34)cc(S(C)(=O)=O)c2C1=O` [Example 29a, (S)-5-(8-Amino-6-(azetidine-1-carbonyl)imidazo[1,2-a]pyrazin-3-yl)-2-(1-cyclopropylethyl)-7-(methylsulfonyl)isoindolin-1-one, trifluoroacetate salt], the IC50 in experiment [1] is ≤ 100 nM; in experiment [2], < 2000 nM; in experiment [3], ≥ 1000 nM.

`C[C@@H](C1CC1)N1Cc2cc(-c3cnc4c(N)ncnn34)cc(C(O)(CO)C(F)(F)F)c2C1=O` (mixture of isomers) [Example 39, 5-(4-Aminoimidazo[2,1-f][1,2,4]triazin-7-yl)-2-((S)-1-cyclopropylethyl)-7-(1,1,1-trifluoro-2,3-dihydroxypropan-2-yl)isoindolin-1-one, trifluoroacetate salt]: the figures for the IC50 in experiment [1], in experiment [2] and in experiment [3] were ≤ 100 nM, < 2000 nM and ≥ 1000 nM, respectively.

Regarding `C[C@@H](C1CC1)N1Cc2cc(-c3cnc4c(N)nc(C(=O)NC5CC(O)C5)cn34)ccc2C1=O` (stereo partly drawn) [Example 31, (S)-8-Amino-3-(2-(1-cyclopropylethyl)-1-oxoisoindolin-5-yl)-N-(3-hydroxycyclobutyl)imidazo[1,2-a]pyrazine-6-carboxamide, trifluoroacetate salt], the IC50 in experiment [1] is ≤ 100 nM; in experiment [2] it was ≥ 2000 nM; in experiment [3] it was ≥ 1000 nM.

In the case of `C[C@@H](C1CC1)N1Cc2cc(-c3cnc4c(N)ncnn34)cc(Cl)c2C1=O` [Example 7, (S)-5-(4-Aminoimidazo[2,1-f][1,2,4]triazin-7-yl)-7-chloro-2-(1-cyclopropylethyl)isoindolin-1-one], the IC50 in experiment [1] was ≤ 100 nM; in experiment [2] it was ≤ 500 nM; in experiment [3], ≥ 1000 nM.

As to `C[C@@H](C1CC1)N1Cc2cc(-c3cnc4c(N)ncnn34)cc(C(C)(C)O)c2C1=O` [Example 17, (S)-5-(4-Aminoimidazo[2,1-f][1,2,4]triazin-7-yl)-2-(1-cyclopropylethyl)-7-(2-hydroxypropan-2-yl)isoindolin-1-one trifluoroacetate salt], the results for the 50% inhibitory concentration (IC50) in experiment [1], in experiment [2] and in experiment [3] were ≤ 100 nM, < 2000 nM and < 1000 nM, respectively.
